Values belong to the molecule of their own block, whether it stands above or below them.
How the values were obtained:
[1] = tested on: HEK293T cathepsin L-transfected cells; conditions: probes 0–10 μM incubated with cells up to 24 hours; streptavidin–HRP blot
Experimental: To evaluate probe uptake, 250 000 HEK293T cells transfected with pcDNA3:ppCatL were seeded into 6-well plates and incubated with various concentrations of bMP-cL1 and bMP-cL2 (0–10 μM) for up to 24 hours. In control experiments the cells were preincubated with 25 μM E-64d, a pan-cathepsin inhibitor, for 2 hours prior to probe addition. After incubation samples were collected and immunoblotted. Biotinylated proteins were detected as described above.

[2] = tested on: HEK293T cells overexpressing cathepsin L; conditions: probes 5 μM, 18 hours; streptavidin magnetic beads; immunoblotting
Experimental: To evaluate MP-cL1 and MP-cL2 selectivity, 250 000 HEK293T cells overexpressing cathepsin L were plated and treated with probes and inhibitors as described above. Streptavidin-bound magnetic beads were prepared in separate tubes according to the manufacturer’s guidelines (Pierce™ Streptavidin Magnetic Beads, Thermo Scientific). Briefly, 50 μL beads were washed with sample lysis buffer and then the lysates were added. Tubes were incubated at room temperature on a rocking platform for 2 hours. The beads were then extensively washed with 50 mM Tris-buffered saline containing 0.1% Tween-20 and collected between each washing step. The beads were then re-suspended in 1× SDS loading buffer at a final volume of 100 μL, and the samples were placed at 95 °C and prepared for immunoblotting as described above to detect biotinylated proteins in the lysates, as well as in the unbound and eluted fractions. To confirm cathepsin L/B selectivity, we seeded HEK293T cells as described above. The probes were added at a 5 μM final concentration and incubated for 18 hours before the cells were harvested and lysed to isolate biotinylated proteins using streptavidin magnetic beads, as described above. The lysates plus the unbound and eluting fractions were then evaluated to detect cathepsin B (in-house mouse polyclonal Ab;[51] dilution 1 : 1000) and cathepsin L (Abcam ab62710).

cathepsin K = target: T1, cathepsin K (Homo sapiens, UniProt P43235); assay: kobs/I of activity-based probes, cathepsin K; format: biochemical; conditions: Fig. 6A; pseudo-first order, probe at least 5-fold excess over cathepsin, 100 μM ACC substrate; pH 5.5, 37 °C; triplicate, SD below 20%
T1 construct: made in house
T1 sequence (P43235 115-329): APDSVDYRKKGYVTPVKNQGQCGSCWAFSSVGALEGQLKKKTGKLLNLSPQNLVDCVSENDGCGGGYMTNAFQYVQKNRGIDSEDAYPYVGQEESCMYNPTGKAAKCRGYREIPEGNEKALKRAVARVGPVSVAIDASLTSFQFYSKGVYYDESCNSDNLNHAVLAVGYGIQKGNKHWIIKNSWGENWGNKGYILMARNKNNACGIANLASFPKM
Experimental: (§1) All kinetic experiments were performed using fMax (Molecular Devices) and CLARIOStar (BMG LABTECH) spectrofluorimeters operating in kinetic mode using 96-well plates. ACC-labeled substrates were screened using 355 nm and 460 nm wavelengths (excitation and emission, respectively). […] The buffer was prepared at room temperature and the enzyme kinetic studies were performed at 37 °C.
(§2) For the kinetic studies, five recombinant human cathepsins (B, L, V, K and S) were expressed and purified and active site titrated using an E64 inhibitor. The kobs/I parameter was measured under pseudo-first order kinetic conditions, as described.[40] The cathepsin of interest was mixed with various concentrations of probe (at least 5-fold excess over cathepsin) and 100 μM ACC-fluorescence substrate. The experiments were repeated at least three times, and the results are presented as an average. The SDs were below 20%.

[3] = tested on: cathepsins L and B in MDA-MB-231 cells; assay: Cathepsin labeling in MDA-MB-231 cells by SDS-PAGE and western blotting; format: cell-based, human
Experimental: Low passage MDA-MB-231 cells were seeded on 12-well plates (200 000 cells per well per 1 mL of medium) and cultured in Dulbecco’s Modification of Eagle’s Medium (DMEM) supplemented with 10% fetal bovine serum, 2 mM of L-glutamine, 100 units per mL penicillin and 100 μg mL^–1 streptomycin. […] To control for non-specific binding, the cells were preincubated with E64d (25 μM) for 2 hours prior to probe addition. At various time points, the medium was aspirated and the cells were gently washed twice with 1 mL of Dulbecco’s Phosphate-Buffered Saline (DPBS) and then trypsinized, harvested and centrifuged for 10 min (500 × g). The supernatants were removed by aspiration and the pellets washed with 1 mL of DPBS and centrifuged (5 min, 500 × g). The supernatants were again removed and the pellets solubilized in 100 μL 1× SDS/DTT and then boiled for 5 min. Each sample was then cooled to room temperature and sonicated (Branson Sonifier 250, duty cycle: 50, output control: 5, cycles: 5) and then 30 μL was loaded on 4–12% Bis-Tris Plus gels and run for 30 min at 200 V with a SDS-PAGE Standards/Broad Range ladder. Proteins were transferred to a 0.2 μm nitrocellulose membrane for 1 hour at 10 V and then Ponceau staining was used to verify equal loading. Membranes were blocked with 2.5% BSA in Tris-buffered saline/0.1% v/v Tween 20 (TBS-T) for 1 hour at room temperature. Cathepsins L and B were detected by primary goat anti-hCathepsin L (R&D, AF952, 0.2 mg mL^–1, 1 : 2000) and goat anti-hCathepsin B (R&D, AF953, 0.2 mg mL^–1, 1 : 1000) antibodies, respectively, followed by incubation with a secondary antibody (IRDye® 800CW, LI-COR, donkey anti-goat, 1 : 10 000). The membranes were incubated with primary antibodies for 2 hours, and with (fluorescent) secondary antibodies for 30 min (both in TBS-T at room temperature). The fluorescence was read at 700 nm (Cyanine5; excitation 685 nm) and 800 nm (secondary antibody; excitation 785 nm) using an Odyssey fluorescence imaging system (LI-COR). The images were analyzed using Image Studio software.

cathepsin S = target: T2, cathepsin S (Homo sapiens, UniProt P25774); assay: kobs/I of activity-based probes, cathepsin S; format: biochemical; conditions: Fig. 6A; pseudo-first order, probe at least 5-fold excess over cathepsin, 100 μM ACC substrate; pH 5.5, 37 °C; triplicate, SD below 20%
T2 construct: made in house
T2 sequence (P25774 115-331): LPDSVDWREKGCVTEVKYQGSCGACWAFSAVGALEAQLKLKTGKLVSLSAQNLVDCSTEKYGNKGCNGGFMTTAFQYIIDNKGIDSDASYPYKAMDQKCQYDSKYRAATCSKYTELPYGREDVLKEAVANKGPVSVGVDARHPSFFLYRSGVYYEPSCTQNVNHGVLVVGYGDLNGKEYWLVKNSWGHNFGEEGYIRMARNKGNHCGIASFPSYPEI
Experimental: as §1, §2

cathepsin V = target: T3, cathepsin V (Homo sapiens, UniProt O60911); assay: kobs/I of activity-based probes, cathepsin V; format: biochemical; conditions: Fig. 6A; pseudo-first order, probe at least 5-fold excess over cathepsin, 100 μM ACC substrate; pH 5.5, 37 °C; triplicate, SD below 20%
T3 construct: made in house
T3 sequence (O60911 114-334): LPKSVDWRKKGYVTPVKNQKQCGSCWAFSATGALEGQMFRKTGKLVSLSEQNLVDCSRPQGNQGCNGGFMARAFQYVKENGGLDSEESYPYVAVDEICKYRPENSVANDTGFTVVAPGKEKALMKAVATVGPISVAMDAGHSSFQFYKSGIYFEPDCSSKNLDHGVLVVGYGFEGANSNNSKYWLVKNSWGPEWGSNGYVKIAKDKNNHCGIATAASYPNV
Experimental: as §1, §2

[4] = tested on: cathepsins L and B in HEK293T cells; assay: Cathepsin labeling by Cy5 probes in HEK293T cells, immunoblotting; format: cell-based, human; conditions: 1 μM probe, 0–18 hours
Experimental: Figure S3 Cathepsins labeling by two Cy5-tagged probes in HEK293T cells. Panel A. Cells (100,000/well/mL) were incubated with MP-cL3 (1µM) probe for 0-18 hours. Next, cells were harvested and subjected for Western blotting. MP-cL3 probe is very selective toward cathepsin L even after 18 hours of incubation (only residual cathepsin B activity is detected).
MDA-MB-231, thus mostly heavy chain of cathepsin L is labeled. Panel B and Panel C. Cells (100,000/well/mL) were incubated with pan-specific MP-pc1 (1µ M) probe for 0-18 hours. Next, cells were harvested and subjected […]
(1 picture or pasted object on this page, not shown here)

cathepsin B = target: T4, cathepsin B (Homo sapiens, UniProt P07858); assay: kobs/I of activity-based probes, cathepsin B; format: biochemical; conditions: Fig. 6A; pseudo-first order, probe at least 5-fold excess over cathepsin, 100 μM ACC substrate; pH 5.5, 37 °C; triplicate, SD below 20%
T4 construct: made in house
Experimental: as §1, §2

[5] = tested on: cathepsins L, V, B, S and K; assay: Labeling of recombinant cathepsins by Cy5 probes, SDS-PAGE; format: biochemical, human; conditions: cathepsins 10 nM or 100 nM, probe/enzyme ratio 0.2, 1, 5 and 25, 30 min, Cy5 scan
Experimental: In experiment A, the probe concentrations were 2 nM, 10 nM, 50 nM and 250 nM, while in experiment B the probe concentrations were 20 nM, 100 nM, 500 nM and 2.5 μM. The reaction volume for all the samples was 200 μL. After 30 min, 100 μL of 3× SDS/DTT was added to the reaction mixtures, the samples were boiled for 5 min, and then 20 μL of the sample was run on 4–12% Bis-Tris Plus 15-well gels for 30 min at 200 V with 2 μL of PageRuler™ Prestained Protein Ladder. The gels were then directly scanned at 700 nm (red channel for Cy5 detection; excitation 685 nm) using an Odyssey fluorescence imaging system (LI-COR) and the images were analyzed using Image Studio software.

cathepsin L = target: T5, cathepsin L (Homo sapiens, UniProt P07711); assay: kobs/I of activity-based probes, cathepsin L; format: biochemical; conditions: Fig. 6A; pseudo-first order, probe at least 5-fold excess over cathepsin, 100 μM ACC substrate; pH 5.5, 37 °C; triplicate, SD below 20%
T5 construct: made in house
T5 sequence (P07711 114-333): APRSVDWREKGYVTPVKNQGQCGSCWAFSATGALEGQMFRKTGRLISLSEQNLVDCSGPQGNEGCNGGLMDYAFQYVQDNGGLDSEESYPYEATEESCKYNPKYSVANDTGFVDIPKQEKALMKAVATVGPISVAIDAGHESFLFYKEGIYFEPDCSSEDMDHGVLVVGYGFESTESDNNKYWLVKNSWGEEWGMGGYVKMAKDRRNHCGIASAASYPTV
Experimental: as §1, §2

Molecule: biotin-6-ahx-His-DThr-Phe(F5)-Lys-AOMK [MP-cL2]
- lowest probe concentration giving a signal in the cathepsin MW range [1]: 100 nM
- cross-reactivity with cathepsin B in pulldown eluting fractions [2]: only minor cross-reactivity

Molecule: biotin-6-ahx-His-DThr-Phe(F5)-Arg-AOMK [MP-cL1]
- lowest probe concentration giving a signal in the cathepsin MW range [1]: 100 nM
- cross-reactivity with cathepsin B in pulldown eluting fractions [2]: only minor cross-reactivity

- kobs/I Cath-K (cathepsin K): 30,150 M^-1s^-1
- kobs/I Cath-S (cathepsin S): 202,500 M^-1s^-1
- kobs/I Cath-V (cathepsin V): 53,200 M^-1s^-1
- kobs/I Cath-B (cathepsin B): 265,000 M^-1s^-1
- kobs/I Cath-L (cathepsin L): 47,500 M^-1s^-1
Molecule: Cy5-Ala-Arg-Leu-Arg-AOMK [MP-pc1, Cy5-labeled broad spectrum (pan-specific) cathepsin probe]
- cathepsins labeled in MDA-MB-231 cells ([3]; 1 μM probe, 0–18 hours, antibody overlay): bound mostly to cathepsin B
- cathepsins labeled in HEK293T cells [4]: labeled both cathepsins L (25 kDa and 30 kDa) and B (30 kDa)
- labeling of recombinant cathepsins L, V, B, S and K [5]: can label cathepsins L, V, B and S (10 nM) even at a 1 : 1 ratio

Molecule: CCOC(=O)[C@H]1O[C@@H]1C(=O)N[C@@H](CC(C)C)C(=O)NCCC(C)C [E64d, reference compound]
- effect of pre-incubation on cathepsin labeling by probe ([3]; 25 μM, 2 hours prior to probe addition, MDA-MB-231 cells): blocked all cysteine cathepsin activity
